Measurements as given in the OligoGym collection.
“And” between values parts separate entries of the source, which are not always exact repeats. Equal entries are not always repeated. After the bases stand the sugars from the 5' end (letter, count) and the backbone: PS all phosphorothioate, else s phosphorothioate and o phosphodiester by linkage. Methylation of C is not given here. e = 2'-O-(2-methoxyethyl) (MOE); k = constrained ethyl (cEt); d = 2'-deoxy (DNA)

Key:
DGAT2 = details: ASO
APOL1 = details: ASO

| Sequence | target mRNA inhibition (DGAT2; HepG2, 2.5 µM) | target mRNA inhibition (DGAT2; HepG2, 10 µM) | target mRNA inhibition (DGAT2; HepG2, 0.12 µM) | also measured |
| --- | --- | --- | --- | --- |
| AGCAGTCTGCCTGATTCCCT (sugars e5 d10 e5, PS) | 69% and 44% | 87% and 82% | – | – |
| GTGGTGATGGGCTTGGAGTA (sugars e5 d10 e5, PS) | – | – | 23% | – |
| CTGTGCTCTGTGGGCTCCTC (sugars e5 d10 e5, PS) | 57% | 89% | – | – |
| GCACCAAGGAATGGTGTGTT (sugars e5 d10 e5, PS) | 16% | 38% | – | – |
| TATTCATCTTTCCAGATCCG (sugars e5 d10 e5, PS) | 66% | 91% | – | – |
| CAGTGCCTACAGCAGAGGGA (sugars e5 d10 e5, PS) | – | – | 0% | – |
| CGCGCAGGACCCCGGAGTAG (sugars e2 d13 e5, PS) | – | – | 67% | – |
| ATTTCTTATCTTCAATCCTC (sugars e5 d10 e5, PS) | 57% | 95% | – | – |
| CTTCTGGACCCATCGGCCCC (sugars e5 d10 e5, PS) | – | – | 30% | – |
| CCCACTGGAGCACTGAGATG (sugars e3 d14 e3, PS) | – | – | 75% | – |
| GAGCACTTGATCTGGGACCC (sugars e5 d10 e5, PS) | 80% and 71% | 92% and 91% | – | – |
| TCCTTTGAAATCCAATGCAC (sugars e5 d10 e5, PS) | 75% and 63% | 87% and 77% | – | – |
| GCCAACAAGTGGGAAATGCA (sugars e5 d10 e5, PS) | 51% | 80% | – | – |
| GCACCTTGTATTAAATACTC (sugars e5 d10 e5, PS) | 75% | 91% | – | – |
| TGTGTCTTCACCAGCTGGAT (sugars e5 d10 e5, PS) | – | – | 55% | – |
| GGCTCAGTTCACCTCCAGGA (sugars e5 d10 e5, PS) | 56% | 90% | – | – |
| GTCATCCAGTATAGCCTAAT (sugars e5 d10 e5, PS) | – | – | 44% | – |
| AAGGCCGTATGCCTGGGAAC (sugars e5 d10 e5, PS) | – | – | 25% | – |
| GCCCAGCACCAAGGAATGGT (sugars e5 d10 e5, PS) | 0% | 59% | – | – |
| GGAGCTCAGAGACTCAGCCG (sugars e3 d14 e3, PS) | 17% | 53% | 81% | target mRNA inhibition (DGAT2; HepG2, 20 µM): 25% |
| CGAAGATCACCTGCTTGTAC (sugars e5 d10 e5, PS) | – | – | 63% | – |

| Sequence | target mRNA inhibition (DGAT2; HepG2, 2.5 µM) | target mRNA inhibition (DGAT2; HepG2, 10 µM) | target mRNA inhibition (DGAT2; HepG2, 0.12 µM) | also measured |
| --- | --- | --- | --- | --- |
| GGTCAGCAGGTTGTGTGTCT (sugars e5 d10 e5, PS) | – | – | 45% and 62% | – |
| AGGAAAACTTAGGCATGCTT (sugars e5 d10 e5, PS) | 58% | 84% | – | – |
| GGAGCCCTCACAGGGCCAGG (sugars e5 d10 e5, PS) | – | – | 38% | – |
| CAGCAGGTTGTGTGTCTTCA (sugars e5 d10 e5, PS) | 16% and 39% | 63% and 79% | 66% and 75% | – |
| TGGTCTTGTGCTTGTCGAAG (sugars e5 d10 e5, PS) | – | – | 41% | – |
| TGAGTATTGTTTTTGT (sugars k3 d4 k3 e1 d5, PS) | – | – | – | target mRNA inhibition (APOL1; A431, 0.0156 µM): 43%; target mRNA inhibition (APOL1; A431, 0.0625 µM): 69%; target mRNA inhibition (APOL1; A431, 0.25 µM): 88%; target mRNA inhibition (APOL1; A431, 1 µM): 94%; target mRNA inhibition (APOL1; A431, 2 µM): 95% |
| CACATCATTGGGTTAT (sugars k2 d4 e3 k2 d5, PS) | – | – | – | target mRNA inhibition (APOL1; A431, 2 µM): 86% |
| TCTCATGGTACAGGAG (sugars kkddddkekekkdddd, PS) | – | – | – | target mRNA inhibition (APOL1; A431, 2 µM): 26% |
| ATGTCTCAAACTCCAC (sugars k4 d9 k3, PS) | – | – | – | target mRNA inhibition (APOL1; A431, 0.0625 µM): 29%; target mRNA inhibition (APOL1; A431, 0.25 µM): 63%; target mRNA inhibition (APOL1; A431, 1 µM): 83% |
| AAGTATTGCCAGCTAA (sugars kkddddkdkdkddddd, PS) | – | – | – | target mRNA inhibition (APOL1; A431, 2 µM): 70% |
| AGCTTTAAACTCAGGT (sugars kekddddeekkddddd, PS) | – | – | – | target mRNA inhibition (APOL1; A431, 2 µM): 82% |
| GTTCAAAAGCAGCATT (sugars kkddddekekeddddd, PS) | – | – | – | target mRNA inhibition (APOL1; A431, 2 µM): 82% |
| CGTGTTATATTTGATC (sugars kkddddkekekddddd, PS) | – | – | – | target mRNA inhibition (APOL1; A431, 2 µM): 88% |
| GATTTTTCTTTGACCG (sugars k4 d9 k3, PS) | – | – | – | target mRNA inhibition (APOL1; A431, 0.0625 µM): 80% and 81%; target mRNA inhibition (APOL1; A431, 0.25 µM): 95% and 94%; target mRNA inhibition (APOL1; A431, 1 µM): 99% and 98% |
| TTCTATTAGAGGGCTA (sugars k4 d9 k3, PS) | – | – | – | target mRNA inhibition (APOL1; A431, 0.04 µM): 68%; target mRNA inhibition (APOL1; A431, 0.0625 µM): 51% and 40%; target mRNA inhibition (APOL1; A431, 0.25 µM): 81% and 72%; target mRNA inhibition (APOL1; A431, 1 µM): 92% and 84% and 98% |
| GGGTCAAAAGCGATGG (sugars k4 d9 k3, PS) | – | – | – | target mRNA inhibition (APOL1; A431, 0.0625 µM): 50%; target mRNA inhibition (APOL1; A431, 0.25 µM): 79%; target mRNA inhibition (APOL1; A431, 1 µM): 88% |
| AATTATGGAATTGCAG (sugars kddddkekekeddddd, PS) | – | – | – | target mRNA inhibition (APOL1; A431, 2 µM): 55% |
| CTGTTCTAACTCTTGG (sugars kkkddddkekekdddd, PS) | – | – | – | target mRNA inhibition (APOL1; A431, 2 µM): 88% |
| CACTTTACATGCACGA (sugars k4 d9 k3, PS) | – | – | – | target mRNA inhibition (APOL1; A431, 0.0625 µM): 26%; target mRNA inhibition (APOL1; A431, 0.25 µM): 65%; target mRNA inhibition (APOL1; A431, 1 µM): 85% |
| AAGCTTTAAACTCAGG (sugars kkkddddkekeddddd, PS) | – | – | – | target mRNA inhibition (APOL1; A431, 2 µM): 84% |
